Source: US20220186188A1, “Method for Obtaining Pancreatic Progenitor Cells and Pancreatic Islet Beta Cells By Means of Differentiation of Human Pluripotent Stem Cells” (Asia Regenerative Medicine, Ltd., priority 2019, published 2022)

Legend:
Format in all cases: cell-based
[1] = test system: pancreatic progenitor cells differentiated from human embryonic stem cells; test: Flow cytometry detection of PDX1 in the pancreatic progenitor cell stage (human embryonic stem cells); conditions: 2 μM inhibitor in pancreatic progenitor cell medium, 5 days, compared with control group without WNT inhibitor
Experimental: a pancreatic progenitor cell medium was prepared, the medium in step 1) was replaced with the pancreatic progenitor cell medium, and the cells were cultured in a carbon dioxide incubator at 37 degrees Celsius for 5 days, during which the medium was replaced every day, wherein the composition of the pancreatic progenitor cell medium was: with an MCDB131 medium as a basic medium, and the following components at the working concentrations were further included: 0.5% of bovine serum albumin (BSA), 1.5 g/L of sodium bicarbonate, 1×glutamine (GlutaMAX), 10 mM glucose, […], 1×insulin-transferrin-selenium-ethanolamine additive (ITS-X), 50 ng/ml of fibroblast growth factor 7 (KGF), 0.5 μM SANT1 (with smo as an inhibitor target), 100 nM retinoic acid (TTNPB), 500 nM phorbol 12,13-dibutyrate (PDBu), 2 μM ALK inhibitor (K02288), and 2 μM WNT signaling pathway inhibitor XAV-939 (not added in a control group), with the concentrations all being final concentrations. […]

[2] = test system: pancreatic progenitor cells and pancreatic islet β cells differentiated from human embryonic stem cells; test: Real-time fluorescence quantitative PCR of PDX1, NKX6-1 and INS mRNA (human embryonic stem cells); conditions: qPCR
Experimental: (§1) a pancreatic progenitor cell medium was prepared, the medium in step 1) was replaced with the pancreatic progenitor cell medium, and the cells were cultured in a carbon dioxide incubator at 37 degrees Celsius for 5 days, during which the medium was replaced every day, wherein the composition of the pancreatic progenitor cell medium was: with an MCDB131 medium as a basic medium, and the following components at the working concentrations were further included: 0.5% of bovine serum albumin (BSA), 1.5 g/L of sodium bicarbonate, 1×glutamine (GlutaMAX), 10 mM glucose, 0.25 M vitamin C, 1×insulin-transferrin-selenium-ethanolamine additive (ITS-X), 50 ng/ml of fibroblast growth factor 7 (KGF), 0.5 μM SANT1 (with smo as an inhibitor target), 100 nM retinoic acid (TTNPB), 500 nM phorbol 12,13-dibutyrate (PDBu), 2 μM ALK inhibitor (K02288), and 2 μM WNT signaling pathway inhibitor XAV-939 (not added in a control group), with the concentrations all being final concentrations.
(§2) b. pancreatic islet β cell medium 2 was prepared, the pancreatic islet β cell medium 1 in above-mentioned step a was replaced with the pancreatic islet β cell medium 2, and the cells were cultured in a carbon dioxide incubator at 37 degrees Celsius for 5 days, during which the medium was replaced every day, wherein the composition of the pancreatic islet β cell medium 1 was: with an MCDB131 medium as a basic medium, and the following components at the working concentrations were further included: 20 mM glucose, 2% of bovine serum albumin (BSA), 1.5 g/L of sodium bicarbonate, 1×glutamine (GlutaMAX), 0.05 mM vitamin C, 1×insulin-transferrin-selenium-ethanolamine additive (ITS-X), 2 μM ALK inhibitor (K02288), 1 μM triiodothyronine (T3), 10 μM YO-01027 (Notch signaling pathway inhibitor), and 10 μM zinc sulfate, with the concentrations all being final concentrations; and the composition of the pancreatic islet β cell medium 2 was: with an MCDB131 medium as a basic medium, and the following components at the working concentrations were further included: 20 mM glucose, 2% of bovine serum albumin (BSA), 1.5 g/L of sodium bicarbonate, 1×glutamine (GlutaMAX), 0.05 mM vitamin C, 1×insulin-transferrin-selenium-ethanolamine additive (ITS-X), 1 μM triiodothyronine (T3), 10 μM Repsox (ALK5 inhibitor), 10 μM vitamin E, 10 μg/ml of heparin sodium, 2 μM R428 (Axl inhibitor), 10 μM zinc sulfate, and 10 mM N-acetyl-L-cysteine (N-cys), with the concentrations all being final concentrations.
Cells cultured in a 24-well plate were collected, and washed twice with 500 μl of DPBS at first, then covered with 200 μl of chymotrypsin-trypsin (Trypsin), and placed at 37° C. for 5 minutes of digestion. Whether the cells float in pieces was observed, and the digestion was terminated using 500 μl of DMEM/F12 medium, then the product was centrifuged at 1000 rpm for 3 minutes, the supernatant was removed, and cell pellets were collected and added to a new RNase-free centrifuge tube. […]

[3] = test system: pancreatic progenitor cells and pancreatic islet β cells differentiated from human embryonic stem cells; test: Immunofluorescence detection of PDX1 and PDX1/INS proteins (human embryonic stem cells)
Experimental: as §1, §2
Cells in a culture plate were washed three times with a phosphate buffered saline (PBS), 3 minutes each time; the cells were fixed with 4% paraformaldehyde at room temperature for 20 minutes, and washed three times with PBS, 3 minutes each time; a blocking solution was prepared in advance (by adding Triton at a final concentration of 0.3% to 9 ml of DPBS, adding donkey serum at a final concentration of 10%, and uniformly mixing); the above-prepared blocking solution was used for blocking and perforation at room temperature for 2 hours; the blocking solution was soaked up, a working concentration of primary antibody prepared with the blocking solution was then added, and the product was left to stand at room temperature for 30 minutes and then placed in a refrigerator at 4° C. overnight; the next day, the product was washed three times with PBS, 3 minutes each time; a fluorescent secondary antibody of donkey serum was added and incubation was carried out at room temperature for 2 hours; in the same way, the product was washed three times with PBS, 3 minutes each time; the product was incubated with a working solution of the nuclear dye DAPI at room temperature for 10 minutes, and washed three times with PBS, 3 minutes each time; then a fluorescence microscope was used for observation and data were collected. […]

[4] = 2 μM inhibitor in pancreatic progenitor cell stage, GAPDH reference
[5] = 2 μM inhibitor in pancreatic progenitor cell stage

For `O=C(Nc1cccc2cccnc12)c1ccc(N2C(=O)[C@@H]3[C@H](C2=O)[C@@H]2C=C[C@H]3C2)cc1` [IWR-1], the “PDX1-positive pancreatic progenitor cells (flow cytometry)” value [1] was “significantly increased”, the “transcription level of the insulin gene INS in the mature pancreatic islet β cell stage” value ([2]; 2 μM inhibitor added in pancreatic progenitor cell stage) was “greatly increased” and the “relative expression of mRNA of NKX6-1 in pancreatic progenitor cells” value [2, 4] was “significantly increased”. For the same compound, the “relative expression of mRNA of PDX1 in pancreatic progenitor cells” value [2, 4] was “significantly increased”, the “number of insulin INS-positive and PDX1 co-stained pancreatic islet β cells in the mature pancreatic islet β cell stage” value ([3]; 2 μM inhibitor added in pancreatic progenitor cell stage, immunofluorescence) was “significantly increased” and the “PDX1-positive pancreatic progenitor cells (immunofluorescence)” value [3, 5] was “significantly increased”. For the same compound, the “cell growth (total cell number by DAPI)” value [3, 5] was “did not affect the cell growth”.
